The structures appear in SMILES notation. Like-named read-outs stand apart in the source and are kept apart here.

Experiment [1] addresses T1, Human BACE1 (Homo sapiens, UniProt P56817).
T1 construct: the soluble part of the human β-Secretase1 (AA1-AA460) was cloned using the BACE1(1-460)-(AVT)-Fc-pGEN-IRES-neo mammalian expression vector; AVT linker (C); made in house
Put plainly: Diluted TR-FRET assay. Format: biochemical. To be noted: 50 times less enzyme, 6.5 h reaction time at r.t.; read-out: IC50 BACE1 (dil. TR-FRET). In short, it runs like this:
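Human BACE1 (residues 1-460) was fused to an IgG1 Fc affinity tag and stably expressed in HEK 293 cells. Using a Multidrop Combi, 7 μL enzyme was added to 0.8 μL compound in dimethylsulphoxide and incubated 10 minutes. Reactions were stopped with 5.5 μL NaOAC Stop solution (pH 9), and TR-FRET fluorescence was read on a Pherastar HTRF module.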

The subject of experiment [2] is SH-SY5Y cells. Put plainly: sAPPβ release assay.
Protocol: Cells were thawed and seeded at a concentration of around 10000 cells/well in DMEM/F-12 with Glutamax, 10% FCS and 1% non-essential amino acids to a 384-well tissue culture treated plate, 30 μL cell susp/well. The cell plates were then incubated for 7-24 h at 37° C., 5% CO2.
The cell medium was removed, followed by addition of 50 μL compound diluted in DMEM/F-12 with Glutamax, 10% FCS, 1% non-essential amino acids to a final cone of 0.5% DMSO. The compounds were incubated with the cells for 16-17 h (overnight) at 37° C., 5% CO2.
Meso Scale Discovery (MSD) plates were used for the detection of sAPP release. MSD sAPPβ plates were blocked in 1% BSA in Tris wash buffer for 1 h on shake at r.t. and washed 1 time in Tris wash buffer. […] The MSD plates were incubated with shaking at r.t. for 2 h and the media discarded. 10 μL detection antibody was added (1 nM) per well followed by incubation with shaking at r.t. for 2 h and then discarded. 35 μL Read Buffer was added per well and the plates were read in a Meso Scale Discovery SECTOR6000 Imager.
In experiment [3] the target is T2, Human BACE2 (Homo sapiens, UniProt Q9Y5Z0).
T2 construct: the soluble part of the human β-Secretase2 (AA1-AA473) was cloned using BACE2(1-473)-(AVT)-Fc-pDEST12.2 mammalian expression vector; AVT linker (C); made in house
T2 sequence (Q9Y5Z0 21-473): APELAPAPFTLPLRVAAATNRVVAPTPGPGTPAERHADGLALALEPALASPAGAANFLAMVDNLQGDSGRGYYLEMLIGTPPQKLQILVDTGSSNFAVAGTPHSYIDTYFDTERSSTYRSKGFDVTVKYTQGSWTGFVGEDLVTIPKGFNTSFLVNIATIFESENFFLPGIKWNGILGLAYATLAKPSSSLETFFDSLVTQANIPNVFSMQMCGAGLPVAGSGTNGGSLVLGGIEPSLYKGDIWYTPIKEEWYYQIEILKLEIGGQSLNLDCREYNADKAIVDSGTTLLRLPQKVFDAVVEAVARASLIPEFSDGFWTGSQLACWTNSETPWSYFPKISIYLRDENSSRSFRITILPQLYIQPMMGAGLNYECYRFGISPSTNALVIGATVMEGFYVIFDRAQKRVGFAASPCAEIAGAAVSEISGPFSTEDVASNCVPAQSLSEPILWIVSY
Put plainly: TR-FRET assay. Format: biochemical. To be noted: substrate 100 nM, pH4.5. (In general: TR-FRET usually uses a lanthanide donor and a delayed reading to cut background.)

Setting [4] is: Homo sapiens, SH-SY5Y, read-out: IC50 Cell (sAPPβ release, nM), SH-SY5Y cells, compounds incubated 16-17 h.
Setting [5] is: read-out: IC50 Cell (sAPPβ release), SH-SY5Y cells, compounds incubated 16-17 h.

T1 sequence (P56817 22-460): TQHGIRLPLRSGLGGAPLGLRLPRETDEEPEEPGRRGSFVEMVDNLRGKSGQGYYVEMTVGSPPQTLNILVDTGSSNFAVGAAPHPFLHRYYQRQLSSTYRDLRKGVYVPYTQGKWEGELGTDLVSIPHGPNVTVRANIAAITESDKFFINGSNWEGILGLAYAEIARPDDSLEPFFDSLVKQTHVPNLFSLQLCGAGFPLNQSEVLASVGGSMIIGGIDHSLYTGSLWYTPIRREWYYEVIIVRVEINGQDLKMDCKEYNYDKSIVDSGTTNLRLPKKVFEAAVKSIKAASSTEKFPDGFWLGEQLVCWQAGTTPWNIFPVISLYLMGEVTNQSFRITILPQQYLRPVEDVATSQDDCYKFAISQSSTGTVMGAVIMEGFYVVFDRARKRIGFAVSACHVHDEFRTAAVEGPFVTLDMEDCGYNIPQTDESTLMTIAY

What is called IC50 is the concentration that inhibits the measured activity by half. As for `[2H]C1([2H])CC2(N=C(N)O1)c1cc(-c3cncnc3)ccc1C[C@]21CC[C@@H](OC)CC1` (stereo partly drawn) [Compound 82, (1r,4r)-4-methoxy-6′-(pyrimidin-5-yl)-5″,6″-dihydro-3′H-dispiro[cyclohexane-1,2′-indene-1′,4″-[1,3]oxazin]-6″,6″-d2-2″-amine], the results for the IC50 in experiment [1], in experiment [2] (setting [4]) and in experiment [3] (enzyme 2.7 μg/mL) were 138 nM, 23 nM and 1790 nM, respectively.

Turning to `[2H]C1([2H])CC2(N=C(N)O1)c1cc(-c3cncc(C#N)c3)ccc1C[C@]21CC[C@@H](OC)CC1` (stereo partly drawn) [Compound 84, 5-((1r,4r)-2″-amino-4-methoxy-5″,6″-dihydro-3′H-dispiro[cyclohexane-1,2′-indene-1′,4″-[1,3]oxazin]-6′-yl-6″,6″-d2)nicotinonitrile], the IC50 in experiment [1] worked out at 88.7 nM; in experiment [2] (setting [4]), 4.8 nM; in experiment [3] (enzyme 2.7 μg/mL), 103 nM.

On to `[2H]C1([2H])CC2(N=C(N)O1)c1cc(-c3cc(C#N)cc(OC)c3)ccc1C[C@]21CC[C@@H](OC)CC1` (stereo partly drawn) [Compound 85, 3-((1r,4r)-2″-amino-4-methoxy-5″,6″-dihydro-3′H-dispiro[cyclohexane-1,2′-indene-1′,4″-[1,3]oxazin]-6′-yl-6″,6″-d2)-5-methoxybenzonitrile], for which the IC50 in experiment [1] came out at 31.8 nM; in experiment [2] (setting [4]) it was 3.5 nM; in experiment [3] (enzyme 2.7 μg/mL) it was 62.5 nM.

Regarding `COCCCC1(C)Cc2ccc(-c3cc(C#N)cc(OC)c3)cc2C12COC(N)=N2` (stereo not drawn) [Compound 88, 3-(2′-amino-2-(3-methoxypropyl)-2-methyl-2,3-dihydro-5′H-spiro[indene-1,4′-oxazol]-6-yl)-5-methoxybenzonitrile], the IC50 in experiment [1] was 1950 nM; in experiment [2] (setting [4]), 450 nM; in experiment [3] (enzyme 2.7 μg/mL), 340 nM.

For the compound `[2H]C1([2H])OC(N)=NC12c1cc(-c3cc(C#N)cc(OC)c3)ccc1CC2(C)C1CCOCC1` (stereo not drawn) [Compound 89, 3-(2′-amino-2-methyl-2-(tetrahydro-2H-pyran-4-yl)-2,3-dihydro-5′H-spiro[indene-1,4′-oxazol]-6-yl-5′,5′-d2)-5-methoxybenzonitrile], the IC50 in experiment [1] was more than 5000 nM; in experiment [2] (setting [4]) it was 889 nM; in experiment [3] (enzyme 2.7 μg/mL) it was more than 5000 nM.

With `COCCCC1Cc2ccc(-c3cc(C#N)cc(OC)c3)cc2C12COC(N)=N2` (stereo not drawn) [Compound 90, 3-(2′-amino-2-(3-methoxypropyl)-2,3-dihydro-5′H-spiro[indene-1,4′-oxazol]-6-yl)-5-methoxybenzonitrile], the results for the IC50 in experiment [1], in experiment [2] (setting [4]) and in experiment [3] (enzyme 2.7 μg/mL) were more than 5000 nM, 715 nM and more than 5000 nM, respectively.

Turning to `COc1cc(C#N)cc(-c2ccc3c(c2)C2(COC(N)=N2)C(C2CCOCC2)C3)c1` (stereo not drawn) [Compound 91, 3-(2′-Amino-2-(tetrahydro-2H-pyran-4-yl)-2,3-dihydro-5′H-spiro[indene-1,4′-oxazol]-6-yl)-5-methoxybenzonitrile], the IC50 stood at 4660 nM in experiment [1], 331 nM in experiment [2] (setting [4]) and 701 nM in experiment [3] (enzyme 2.7 μg/mL).

`COCCC1Cc2ccc(-c3cc(C#N)cc(OC)c3)cc2C12COC(N)=N2` (stereo not drawn) [Compound 92, 3-(2′-amino-2-(2-methoxyethyl)-2,3-dihydro-5′H-spiro[indene-1,4′-oxazol]-6-yl)-5-methoxybenzonitrile]: the IC50 in experiment [1] was 4160 nM; in experiment [2] (setting [4]), 223 nM; in experiment [3] (enzyme 2.7 μg/mL), 437 nM.

On to `COCCC1(C)Cc2ccc(-c3cc(C#N)cc(OC)c3)cc2C12COC(N)=N2` (stereo not drawn) [Compound 93, 3-(2′-amino-2-(2-methoxyethyl)-2-methyl-2,3-dihydro-5′H-spiro[indene-1,4′-oxazol]-6-yl)-5-methoxybenzonitrile], for which the IC50 in experiment [1] was more than 5000 nM; in experiment [2] (setting [4]), 561 nM; in experiment [3] (enzyme 2.7 μg/mL), 1210 nM.

For the compound `NC1=NC2(CO1)c1cc(-c3cncnc3)ccc1CC2C1CCOCC1` (stereo not drawn) [Compound 94, 6-(pyrimidin-5-yl)-2-(tetrahydro-2H-pyran-4-yl)-2,3-dihydro-5′H-spiro[indene-1,4′-oxazol]-2′-amine], the figures for the IC50 in experiment [1], in experiment [2] (setting [4]) and in experiment [3] (enzyme 2.7 μg/mL) were 4660 nM, 331 nM and 701 nM, respectively.

On to `CC1(C2CCOCC2)Cc2ccc(-c3cncnc3)cc2C12COC(N)=N2` (stereo not drawn) [Compound 95, 2-methyl-6-(pyrimidin-5-yl)-2-(tetrahydro-2H-pyran-4-yl)-2,3-dihydro-5′H-spiro[indene-1,4′-oxazol]-2′-amine], for which the IC50 in experiment [1] was more than 5000 nM; in experiment [2] (setting [5]) it was 889 nM; in experiment [3] (enzyme 2.7 μg/mL) it was more than 5000 nM.

Consider `CC1(C2Cc3ccc(-c4cncnc4)cc3C23COC(N)=N3)CCOCC1` (stereo not drawn) [Compound 96, 2-(4-methyltetrahydro-2H-pyran-4-yl)-6-(pyrimidin-5-yl)-2,3-dihydro-5′H-spiro[indene-1,4′-oxazol]-2′-amine], for which the IC50 in experiment [1] is more than 5000 nM; in experiment [2] (setting [4]), 205 nM; in experiment [3] (enzyme 2.7 μg/mL), 1790 nM.

As for `C[C@@H]1CC(C2Cc3ccc(-c4cncnc4)cc3C23COC(N)=N3)C[C@H](C)O1` (stereo partly drawn) [Compound 97, 2-((2R,6S)-2,6-dimethyltetrahydro-2H-pyran-4-yl)-6-(pyrimidin-5-yl)-2,3-dihydro-5′H-spiro[indene-1,4′-oxazol]-2′-amine], the IC50 in experiment [1] was more than 5000 nM; in experiment [2] (setting [4]), 1420 nM; in experiment [3] (enzyme 2.7 μg/mL) it was more than 5000 nM.

With `NC1=NC2(CO1)c1cc(-c3cncnc3)ccc1CC2N1CCOCC1` (stereo not drawn) [Compound 98, 2-morpholino-6-(pyrimidin-5-yl)-2,3-dihydro-5′H-spiro[indene-1,4′-oxazol]-2′-amine], the IC50 was more than 5000 nM in experiment [1]; 1840 nM in experiment [2] (Homo sapiens, SH-SY5Y, read-out: IC50 Cell (sAPPβ release, nM)); more than 1580 nM in experiment [3] (enzyme 2.7 μg/mL).

`CC#Cc1cncc(-c2ccc3c(c2)C2(COC(N)=N2)C(N2CCOCC2)C3)c1` (stereo not drawn) [Compound 99, 2-morpholino-6-(5-(prop-1-yn-1-yl)pyridin-3-yl)-2,3-dihydro-5′H-spiro[indene-1,4′-oxazol]-2′-amine]: the IC50 in experiment [1] is 3190 nM; in experiment [2] (setting [4]), 489 nM; in experiment [3] (enzyme 2.7 μg/mL), 519 nM.

For `COc1cc(C#N)cc(-c2ccc3c(c2)C2(COC(N)=N2)C(N2CCOCC2)C3)c1` (stereo not drawn) [Compound 100, 3-(2′-amino-2-morpholino-2,3-dihydro-5′H-spiro[indene-1,4′-oxazol]-6-yl)-5-methoxybenzonitrile], the IC50 in experiment [1] is more than 5000 nM; in experiment [2] (setting [4]), 2160 nM; in experiment [3] (enzyme 2.7 μg/mL) it was 1370 nM.

On to `COc1cc(C#N)cc(-c2ccc3c(c2)C2(COC(N)=N2)C(C)(C2CCOCC2)C3)c1` (stereo not drawn) [Compound 101, 3-(2′-amino-2-methyl-2-(tetrahydro-2H-pyran-4-yl)-2,3-dihydro-5′H-spiro[indene-1,4′-oxazol]-6-yl)-5-methoxybenzonitrile], for which the IC50 in experiment [1] came to 194 nM; in experiment [2] (setting [4]), 75.6 nM; in experiment [3] (enzyme 2.7 μg/mL) it was 274 nM.

On to `CC1(C2CCOCC2)Cc2ccc(-c3cncnc3)cc2C12COC(N)=N2` (stereo not drawn) [Compound 102, 2-methyl-6-(pyrimidin-5-yl)-2-(tetrahydro-2H-pyran-4-yl)-2,3-dihydro-5′H-spiro[indene-1,4′-oxazol]-2′-amine], for which the IC50 in experiment [1] is 2190 nM; in experiment [2] (setting [5]) it was 32.9 nM; in experiment [3] (enzyme […]) it was more than 5000 nM.

Turning to `[2H]C([2H])([2H])O[C@H]1CC[C@@]2(Cc3ccc(-c4cc(Cl)cnc4F)cc3[C@]23N=C(N)OC3([2H])[2H])C[C@@H]1C` [Compound 103, {(1S,1′R,3S,4S)-6′-(2-fluoro-5-chloropyridin-3-yl)-4-(methoxy-d3)-3-methyl-3′H,5″H-dispiro[cyclohexane-1,2′-indene-1′,4″-oxazol]-5″,5″-d2-2″-amine}], the results for the IC50 in experiment [1], in experiment [2] (setting [4]) and in experiment [3] (enzyme 2.7 μg/mL) were 22 nM, 0.6 nM and 55 nM, respectively.

These data come from patent publication US10053453B2, “Compounds and their use as BACE inhibitors” (AstraZeneca AB, priority 2014, dated 2018).
